Reference: patent US11028077B2, “Crystalline pharmaceutical and methods of preparation and use thereof” (NOVARTIS PHARMACEUTICALS CORPORATION, priority 2008, dated 2021)
Several values for one entry are separate records, joined by “and”; a condition that tells them apart may be missing. Equal entries are not always repeated.

Key:
[1] = system: rats; assay: CNS effects in rats, single bolus IV injection; format: in vivo, rat; conditions: 10.0 mg/kg IV, 1 minute to 6 hours postdose, 2/6 animals at each time point
Text: No effect on any other parameters was observed.

[2] = Single dose ADME study with [14C]-compound in dogs; format: in vivo; conditions: dog, for 16 hrs
Text: No differences in results from male and female dogs were observed.

[3] = system: Keratoconjunctivitis Sicca (KCS); assay: Canine keratoconjunctivitis sicca (KCS) study; format: in vivo, dog
Text: If dogs had been treated with topical CsA or tacrolimus in the previous six months, they were not enrolled. […] Animals were subjected to an ocular examination once during the initial visit and during five visits over sixteen weeks of the study (Weeks, 2, 4, 8, 12 and 16). The last OE was approximately four weeks after the last dose of the compound of Formula I and after one month of CsA treatment. The adnexa and anterior portions of both eyes were examined using an indirect opthalmoscope. The eyes were dilated with a mydriatic when applicable, to allow evaluation of the lens and fundus, including the retina. An evaluation using a modified McDonald-Shaddock scoring system was performed in conjunction with the slitlamp ocular examinations at each interval. Tears were measured using STT strips during the initial visit and each of the five follow-up visits on Weeks 2, 4, 8, 12 and 16. One strip of STT paper was used for each eye for each interval. […] The length, in mm, of wetting below the notch of the paper was recorded. Fluorescein and rose bengal staining was performed at the each of the initial and follow up examinations. Intraocular pressure measurements (IOPs) were performed using a Tono-Pet Vet® in conjunction with each of the OEs. Digital ocular images were taken before and after staining (with fluorescein and rose bengal) during each of the OEs. Conjunctival biopsies were taken at the initial (pretreatment) visit and the Week 12 visit. The second biopsy was taken more lateral (approx. 1 mm) to the initial biopsy. Following appropriate preparation a small conjunctival biopsy was taken from the ventral fornix of each eye.

[4] = Plasma PK after single topical ocular instillation (dogs and rabbits); conditions: baseline levels by about 4 hours
[5] = Skin transport studies on microtomed human skin; format: in vitro ADME; conditions: 1% (w/w) prototypes; [^14C]-compound
Text: Prototypes have been developed and tested on microtomed human skin from elective surgery at 1% (w/w). The forms include gels, ointment, or lotion. […]

[6] = system: mini-pigs; assay: Pilot mini-pig dermal study
[7] = Single dose ocular and IV ADME study with [14C]-compound in rats, quantitative whole body autoradiography; format: in vivo, rat; conditions: tissue distribution in pigmented vs albino rats
[8] = Solubility studies; format: physicochemical
[9] = system: Chinese hamster ovary (CHO) cells; assay: In vitro chromosomal aberration assay in CHO cells; format: cell-based; conditions: with and without metabolic activation; except single toxic dose 3500 μg/mL without activation
Text: The biological relevance of this response is equivocal due to cytotoxicity.

[10] = system: dogs (beagles); assay: Cardiovascular effects in conscious telemetry-instrumented dogs, IV bolus; format: in vivo, dog; conditions: IV bolus injection
[11] = system: rats; assay: Respiratory function in rats, single IV bolus, head-out plethysmograph; format: in vivo, rat; conditions: any dose
[12] = rabbit, in vivo, topical or ocular, 0.35 mg
[13] = system: rabbits; assay: 13-week ocular toxicity study in rabbits with 4-week recovery (toxicity and TK); conditions: rabbits (3%)
[14] = system: rats; assay: Pilot rat dermal study; format: in vivo; conditions: 1% lotion, ointment, gel, DMSO; TID seven days, 10 mg/cm^2
Experimental: The safety and tolerability of prototypical dermal formulations (1% lotion, ointment, and gel) were assessed on rats given TID for seven consecutive days—approximately 6 cm^2 with 10 mg/cm^2.

[15] = system: HuT 78 cell adhesion to 5dICAM-Ig; assay: Human T-cell adhesion assay (HuT 78 cell adhesion to 5dICAM-Ig); format: cell-based; conditions: HuT78, HuT 78 cells, read-out: EC50, inhibition of T-cell adhesion
Experimental: The T-cell adhesion assay was performed using the human T-lymphoid cell line HuT 78 (ATCC TIB-161). Goat anti-HuIgG(Fc) was diluted to 2 μg/ml in PBS and 96-well plates were coated with 50 μl/well at 37° C. for 1 h. Plates were washed with PBS and blocked for 1 h at room temperature with 1% BSA in PBS. 5 domain ICAM-Ig was diluted to 100 ng/ml in PBS and 50 μl/well was added to the plates O/N at 4° C. HuT 78 cells were centrifuged at 100 g and the cell pellet was treated with 5 mM EDTA for ˜5′ at 37° C. in a 5% CO2 incubator. Cells were washed in 0.14 M NaCl, 0.02 M Hepes, 0.2% glucose and 0.1 mM MnCl2 (assay buffer) and centrifuged. The cells were resuspended in assay buffer to 3.0×10^6 c/ml Inhibitors were diluted in assay buffer to a 2× final concentration and pre-incubated with HuT78 cells for 30′ at room temperature. 100 μl/well of cells and inhibitors were added to the plates and incubated at room temperature for 1 h. 100 μl/well PBS was added and the plates were sealed and centrifuged inverted at 100 g for 5′. Unattached cells were flicked out of the plate and excess PBS was blotted on a paper towel. […] The enzyme reaction was stopped with […] 50 mM glycine/5 mM EDTA and read on a platereader at […]. HUT 78 cell adhesion to 5dICAM-Ig was measured using the p-nitrophenyl n-acetyl-f3-D-glucosaminide method of Landegren, U. (1984). […]

[16] = Phase 1 clinical trial, plasma PK analysis; format: in vivo, human
Experimental: Samples were also obtained at 48 hours post dose on Days 1, 14 and 27 and a single blood sample was collected at the follow-up visit at the end of the study.

CS(=O)(=O)c1cccc(C[C@H](NC(=O)c2c(Cl)cc3c(c2Cl)CCN(C(=O)c2ccc4ccoc4c2)C3)C(=O)O)c1 [compound of Formula I]
CNS observation [1]: Transient miosis | levels in conjunctiva/cornea [2]: greater than 1 micromolar | Schirmer Tear Test (OS), individual dogs ([3]; Week 1, left eye, 1% solution, 0.35 mg/eye TID): 9 mm (2×) and 0 mm (3×) and 7 mm | Schirmer Tear Test (OD), individual dogs ([3]; Week 1, right eye, 1% solution, 0.35 mg/eye TID): 8 mm (2×) and 6 mm (2×) and 0 mm and 5 mm | Schirmer Tear Test (OS), individual dogs ([3]; Week 2, left eye, 1% solution TID): 4 mm and 0 mm (2×) and 14 mm and 3 mm and 8 mm | Schirmer Tear Test (OD), individual dogs ([3]; Week 2, right eye, 1% solution TID): 10 mm and 2 mm (2×) and 11 mm (3×) | Schirmer Tear Test (OS), individual dogs ([3]; Week 4, left eye, 1% solution TID): 14 mm (2×) and 0 mm (2×) and 7 mm and 5 mm | Schirmer Tear Test (OD), individual dogs ([3]; Week 4, right eye, 1% solution TID): 15 mm and 2 mm and 0 mm and 5 mm and 10 mm (2×) | Schirmer Tear Test (OS), individual dogs ([3]; Week 8, left eye, 1% solution TID): 8 mm (2×) and 0 mm and 2 mm and 17 mm and 6 mm | Schirmer Tear Test (OD), individual dogs ([3]; Week 8, right eye, 1% solution TID): 17 mm and 1 mm and 8 mm and 7 mm (2×) and 11 mm | Schirmer Tear Test (OS), individual dogs ([3]; Week 12, left eye, 1% solution TID): 8 mm (2×) and 3 mm and 7 mm and 15 mm and 4 mm | Schirmer Tear Test (OD), individual dogs ([3]; Week 12, right eye, 1% solution TID): 16 mm and 0 mm and 8 mm and 7 mm and 13 mm and 9 mm | Schirmer Tear Test (OS), individual dogs ([3]; Week 16, left eye, four weeks after last dose and after one month of CsA 0.2% ointment): 17 mm and 3 mm and 5 mm and 16 mm and 7 mm and 19 mm | Schirmer Tear Test (OD), individual dogs ([3]; Week 16, right eye, four weeks after last dose and after one month of CsA 0.2% ointment): 18 mm and 12 mm and 8 mm (3×) and 22** mm | Maximum-Minimum Analysis, maximal change in STT, OS, individual dogs ([3]; Weeks 1-12, left eye): 7 mm (2×) and 11 mm and 3 mm and 10 mm and 6 mm | Maximum-Minimum Analysis, maximal change in STT, OD, individual dogs ([3]; Weeks 1-12, right eye): 3 mm and 8 mm (3×) and −4 mm and 5 mm | average improvement in STT, all 12 eyes ([3]; during the treatment period (12 weeks)): 4 mm | Histopathological evaluation of conjunctival biopsies taken before and after treatment ([3]; pretreatment vs Week 12): attenuation of lymphocyte accumulation | mean change in Schirmer test score over pretreatment ([3]; week 12): Significant improvement | time of maximum plasma concentration post-dose [4]: about 0.25 hrs | concentration in dermis [5]: greater than 10 micromolar | dose penetration [5]: 2-4% | toxicity ([6]; DMSO, gel, ointment, lotion at 1%, dermal TID for 7 days, 10 mg/cm^2): No toxicity | plasma level ([6]; all groups, below the LLOQ): < 0.5 ng/mL | binding to melanin [7]: did not preferentially bind to melanin | solubility ([8]; ethanol/glycol/transcutol solution): 10 % (w/w) | solubility ([8]; water/glycol/transcutol solution): 2 % (w/w) | induction of structural chromosomal aberrations [9]: negative for inducing structural chromosomal aberrations | effects on electrocardiography or hemodynamic parameters [10]: No effects on electrocardiography or hemodynamic parameters | respiratory function (tidal volume, respiration rate, minute volume) [11]: No adverse changes in respiratory function or adverse effects | Mean tear AUC [12]: 18931 ng·h/mL | NOAEL [13]: 1.05 mg/eye/3× per day | serum level [14]: detectable in serum | EC50 [15]: < 50 nM | plasma concentration ([16]; 0.1% dose strength, single and multiple doses, all timepoints (BLOQ)): < 0.500 ng/mL | plasma concentration ([16]; 0.3% dose strength, single and multiple doses, all timepoints (BLOQ)): < 0.500 ng/mL | plasma concentration ([16]; 1% dose strength, 3 of 5 subjects (BLOQ)): < 0.500 ng/mL | plasma concentration ([16]; 5% dose strength, generally not detectable after the first hour): < 3 ng/mL
